The text below walks through data of patent US11066414B2, “Cot modulators and methods of use thereof” (Gilead Sciences, Inc., priority 2015, dated 2021).

As a reminder, the EC50 is the concentration needed to bring the measured effect to its halfway point.

The test system of the experiment is TNFα. The experiment in a line: Cot Monocyte TNFα Cell Based Assay.
[1] abbreviates: Homo sapiens, Monocyte, read-out: EC50 TNF, LPS-stimulated human monocytes, TNFα.
Setting [2] is: read-out: EC50 TNF, LPS-stimulated human monocytes, TNFα.
Where [3] appears, read: Homo sapiens, Monocyte, read-out: EC50 TNF, LPS-stimulated human monocytes, TNFα TR-FRET.

Where two headings read alike, the source gives them in different places.

On to `N#Cc1cnc2c(Cl)cc(N[C@@H](c3cccnc3)c3cn(C4CC4)nn3)cc2c1Nc1cnc(F)c(F)c1` [Example 206, (S)-8-chloro-6-(((1-cyclopropyl-1H-1,2,3-triazol-4-yl)(pyridin-3-yl)methyl)amino)-4-((5,6-difluoropyridin-3-yl)amino)quinoline-3-carbonitrile], for which the EC50 under setting [1] is 211 nM.
Turning to “6-(((6-fluoro-2-methylpyridin-3-yl)(1-((1- (trifluoromethyl)cyclopropyl)-1H-1,2,3- triazol-4-yl)methyl)amino)-8-(3-hydroxy- 3-methylbutyl-1-yl)-4- (neopentylamino)quinoline-3-carbonitrile [Example 982]”, the EC50 (read-out: EC50 TNF, LPS-stimulated human monocytes, TNFα TR-FRET) is 1000 nM.
As to `CC(C)(C)N1CCC(n2cc([C@@H](Nc3cc(Cl)c4ncc(C#N)c(Nc5ccc(F)c(Cl)c5)c4c3)c3ccc4ncsc4c3)nn2)CC1` [Example 63, (S)-6-((benzo[d]thiazol-6-yl(1-(1-(tert-butyl)pipcridin-4-yl)-1H-1,2,3-triazol-4-yl)methyl)amino)-8-chloro-4-((3-chloro-4-fluorophenyl)amino)quinoline-3-carbonitrile], the EC50 under setting [2] was 257 nM.
For `N#Cc1cnc2c(Cl)cc(N[C@H](c3c[nH]nn3)c3cccnc3Cl)cc2c1Nc1cnc(F)c(F)c1` [Example 161, (S)-8-chloro-6-(((2-chloropyridin-3-yl)(1H-1,2,3-triazol-4-yl)methyl)amino)-4-((5,6-difluoropyridin-3-yl)amino)quinoline-3-carbonitrile], the EC50 under setting [1] is 1670 nM.
Take `COc1c(C(Nc2cc(C#N)c3ncc(C#N)c(NCC(C)(C)C)c3c2)c2ccc(F)nc2C)nnn1C` (stereo not drawn) [Example 908, 6-(((6-fluoro-2-methylpyridin-3-yl)(5-methoxy-1-methyl-1H-1,2,3-triazol-4-yl)methyl)amino)-4-(neopentyl-amino)quinoline-3,8-dicarbonitrile]: under setting [3], the EC50 was 238 nM.
For the compound `Cc1nc(F)ccc1[C@H](Nc1cc(Cl)c2ncc(C#N)c(N[C@H](CCC#N)c3ccccc3)c2c1)c1cn(C2CC2)nn1` [Example 431, 8-chloro-4-(((R)-3-cyano-1-phenyl-propyl)amino)-6-(((S)-(1-cyclopropyl-1H-1,2,3-triazol-4-yl)(6-fluoro-2-methylpyridin-3-yl)methyl)amino)-quinoline-3-carbonitrile], the EC50 under setting [1] stood at 21 nM.
In the case of `CC(C)(C)CNc1c(C#N)cnc2c(Cl)cc(N[C@H](c3nnn(C4(C(F)F)CC4)c3F)c3cccc4ncccc34)cc12` [Example 962, (S)-8-chloro-6-(((1-(1-(difluoromethyl)cyclopropyl)-5-fluoro-1H-1,2,3-triazol-4-yl)(quinolin-5-yl)methyl)amino)-4-(neopentylamino)quinoline-3-carbonitrile], the EC50 under setting [3] was 135 nM.
With `CC(C)(C)N1CCC(n2cc([C@@H](Nc3cc(Cl)c4ncc(C#N)c(Nc5cncc(Cl)c5)c4c3)c3cccnc3)nn2)CC1` [Example 284, (S)-6-(((1-(1-(tert-butyl)piperidin-4-yl)-1H-1,2,3-triazol-4-yl)(pyridin-3-yl)methyl)amino)-8-chloro-4-((5-chloropyridin-3-yl)amino)quinoline-3-carbonitrile], under setting [1], the EC50 turned out to be 1300 nM.
Regarding `Cc1nc(F)ccc1[C@H](Nc1cc(C#N)c2ncc(C#N)c(NCC(C)(C)C)c2c1)c1cn(C(C)(C)C)nn1` [Example 589, (S)-6-(((1-(tert-butyl)-1H-1,2,3-triazol-4-yl)(6-fluoro-2-methylpyridin-3-yl)methyl)amino)-4-(neopentylamino)quinoline-3,8-dicarbonitrile], the EC50 under setting [1] amounted to 34 nM.
Take `Cn1nccc1[C@H](Nc1cc(Cl)c2ncc(C#N)c(NCC(C)(C)C)c2c1)c1cn(C2(C(F)(F)F)CC2)nn1` [Example 666, (S)-8-chloro-6-(((1-methyl-1H-pyrazol-S-yl)(1-(1-(trifluoromethyl)cyclopropyl)-1H-1,2,3-triazol-4-yl)methyl)amino)-4-(neopentylamino)quinoline-3-carbonitrile]: the EC50 under setting [2] was 246 nM.
In the case of `COc1ccc([C@H](Nc2cc(Cl)c3ncc(C#N)c(Nc4ccc(F)c(Cl)c4)c3c2)c2cn(C3CCN(C(C)(C)C)CC3)nn2)cn1` [Example 290, (S)-6-(((1-(1-(tert-butyl)piperidin-4-yl)-1H-1,2,3-triazol-4-yl)(6-methoxy-pyridin-3-yl)methyl)amino)-8-chloro-4-((3-chloro-4-fluorophenyl)amino)-quinoline-3-carbonitrile], the EC50 under setting [1] was found to be 185 nM.
Same read-out and setting: the figure for `Cc1nc(F)ccc1[C@H](Nc1cc(Cl)c2ncc(C#N)c(NCC(C)(C)CO)c2c1)c1cn(C2(C(F)F)CC2)nn1` [Example 746, (S)-8-chloro-6-(((1-(1-(difluoromethyl)cyclopropyl)-1H-1,2,3-triazol-4-yl)(6-fluoro-2-methylpyridin-3-yl)methyl)amino)-4-((3-hydroxy-2,2-dimethylpropyl)amino)quinoline-3-carbonitrile] is 178 nM; for `Cc1ncccc1[C@H](Nc1cc(Cl)c2ncc(C#N)c(N[C@H](C)c3ccccc3)c2c1)c1c[nH]nn1` [Example 229, 8-chloro-6-(((S)-(2-methylpyridin-3-yl)(1H-1,2,3-triazol-4-yl)methyl)amino)-4-(((R)-1-phenylethyl)amino)quinoline-3-carbonitrile] it is 1470 nM.
For `Cn1ncc2c([C@H](Nc3cc(Cl)c4ncc(C#N)c(NCC(C)(C)C)c4c3)c3cn(Cc4c(F)cccc4F)nn3)cccc21` [Example 655, (S)-8-chloro-6-(((1-(2,6-difluorobenzyl)-1H-1,2,3-triazol-4-yl)(1-methyl-1H-indazol-4-yl)methyl)amino)-4-(neopentylamino)quinoline-3-carbonitrile], the EC50 under setting [1] was 104 nM.
Consider `Cc1ocnc1[C@H](Nc1cc(Cl)c2ncc(C#N)c(Nc3ccc(F)c(Cl)c3)c2c1)c1cn(C2CCN(C(C)(C)C)CC2)nn1` [Example 263, (S)-6-(((1-(1-(tert-butyl)piperidin-4-yl)-1H-1,2,3-triazol-4-yl)(5-methyloxazol-4-yl)methyl)amino)-8-chloro-4-((3-chloro-4-fluorophenyl)amino)quinoline-3-carbonitrile], for which the EC50 under setting [1] was determined as 242 nM.
Turning to `CC(C)(C)N1CCC(n2cc([C@@H](Nc3cc(Cl)c4ncc(C#N)c(Nc5ccc(F)c(Cl)c5)c4c3)c3cnc(F)c(F)c3)nn2)CC1` [Example 292, (S)-6-(((1-(1-(tert-butyl)piperidin-4-yl)-1H-1,2,3-triazol-4-yl)(5,6-difluoropyridin-3-yl)methyl)amino)-8-chloro-4-((3-chloro-4-fluorophenyl)amino)quinoline-3-carbonitrile], the EC50 under setting [1] amounted to 327 nM.
For `Cc1nc(F)ccc1[C@H](Nc1cc(C#N)c2ncc(C#N)c(NCC(C)(C)C(F)(F)F)c2c1)c1nnn(C2(C3CC3)CC2)c1F` [Example 862, (S)-6-(((1-([1,1′-bi(cyclopropan)]-1-yl)-5-fluoro-1H-1,2,3-triazol-4-yl)(6-fluoro-2-methylpyridin-3-yl)methyl)amino)-4-((3,3,3-trifluoro-2,2-dimethylpropyl)amino)quinoline-3,8-dicarbonitrile], the EC50 under setting [3] is 49 nM.
As for `CC(C)(C)CNc1c(C#N)cnc2c(Br)cc(N[C@H](c3cn(C4(C(F)(F)F)CC4)nn3)c3cccc4ncsc34)cc12` [Example 439, (S)-6-((benzo[d]thiazol-7-yl(1-(1-(trifluoromethyl)cyclopropyl)-1H-1,2,3-triazol-4-yl)methyl)amino)-8-bromo-4-(neopentylamino)quinoline-3-carbonitrile], under setting [1], the EC50 worked out at 299 nM.
As to `Cc1nc(F)ccc1[C@H](Nc1cc(Cl)c2ncc(C#N)c(NCC(C)(C)C)c2c1)c1nnn(C2CC2)c1C` [Example 647, (S)-8-chloro-6-(((1-cyclopropyl-5-methyl-1H-1,2,3-triazol-4-yl)(6-fluoro-2-methylpyridin-3-yl)methyl)amino)-4-(neopentylamino)quinoline-3-carbonitrile], under setting [1], the EC50 was found to be 133 nM.
`[2H][C@](Nc1cc(Cl)c2ncc(C#N)c(NCC(C)(C)C)c2c1)(c1ccc(F)nc1)c1c[nH]nn1` [Example 135, (S)-8-chloro-6-(((6-fluoropyridin-3-yl)(1H-1,2,3-triazol-4-yl)methyl-d)amino)-4-(neopentylamino)quinoline-3-carbonitrile]: under setting [1], the EC50 was found to be 660 nM.
Same read-out and setting: the figure for `[2H]C([2H])(Nc1c(C#N)cnc2c(Cl)cc(N[C@@]([2H])(c3ccc(N(C)C)nc3)c3cn(C4CC4)nn3)cc12)C(C)(C)C` [Example 679, (S)-8-chloro-6-(((1-cyclopropyl-1H-1,2,3-triazol-4-yl)(6-(dimethylamino)pyridin-3-yl)methyl-d)amino)-4-((2,2-dimethylpropyl-1,1-d2)amino)quinoline-3-carbonitrile] is 710 nM; for `Cc1ncccc1[C@H](Nc1cc(Cl)c2ncc(C#N)c(Nc3ccc(Cl)c(Cl)c3F)c2c1)c1cn(C(C)C)nn1` [Example 232, (S)-8-chloro-4-((3,4-dichloro-2-fluorophenyl)amino)-6-(((1-isopropyl-1H-1,2,3-triazol-4-yl)(2-methylpyridin-3-yl)methyl)amino)quinoline-3-carbonitrile] it is 346 nM.
In the case of `COc1ccc(C(Nc2cc(Cl)c3ncc(C#N)c(NCC(C)(C)C)c3c2)c2nnn(C)c2OC)c(C)n1` (stereo not drawn) [Example 970, 8-chloro-6-(((5-methoxy-1-methyl-1H-1,2,3-triazol-4-yl)(6-methoxy-2-methylpyridin-3-yl)methyl)amino)-4-(neopentylamino)quinoline-3-carbonitrile], the EC50 under setting [3] was 722 nM.
Take `CC(C)(C)CNc1c(C#N)cnc2c(Cl)cc(N[C@@H](c3ccc(Cl)nc3)c3cn(C4(C(F)(F)F)CC4)nn3)cc12` [Example 793, (S)-8-chloro-6-(((6-chloropyridin-3-yl)(1-(1-(trifluoromethyl)cyclopropyl)-1H-1,2,3-triazol-4-yl)methyl)amino)-4-(neopentylamino)quinoline-3-carbonitrile]: under setting [1], the EC50 came to 782 nM.
